Values joined by “and” are separate entries in the source; they are usually repeats but may differ in a detail not shown here. Identical values can stand only once. Marks after values point to notes of the source that are not given here.
Experiments:
porcine albumin [1] = biological target: T1, porcine albumin (Sus scrofa, UniProt P08835); assay: Reaction with porcine albumin investigated by MS; conditions: 60 min, 37 °C; molar ratio compound/albumin 4:1
porcine albumin [2] = biological target: T1, porcine albumin; assay: Stability in porcine albumin solution; assay type: in vitro ADME; conditions: porcine albumin 17.5 mg/mL in PBS; 30 min, 37 °C
FAAH = biological target: T2, FAAH (Rattus norvegicus, UniProt P97612); assay: Inhibition of fatty acid amide hydrolase; assay type: biochemical
T2 sequence (P97612 1-579): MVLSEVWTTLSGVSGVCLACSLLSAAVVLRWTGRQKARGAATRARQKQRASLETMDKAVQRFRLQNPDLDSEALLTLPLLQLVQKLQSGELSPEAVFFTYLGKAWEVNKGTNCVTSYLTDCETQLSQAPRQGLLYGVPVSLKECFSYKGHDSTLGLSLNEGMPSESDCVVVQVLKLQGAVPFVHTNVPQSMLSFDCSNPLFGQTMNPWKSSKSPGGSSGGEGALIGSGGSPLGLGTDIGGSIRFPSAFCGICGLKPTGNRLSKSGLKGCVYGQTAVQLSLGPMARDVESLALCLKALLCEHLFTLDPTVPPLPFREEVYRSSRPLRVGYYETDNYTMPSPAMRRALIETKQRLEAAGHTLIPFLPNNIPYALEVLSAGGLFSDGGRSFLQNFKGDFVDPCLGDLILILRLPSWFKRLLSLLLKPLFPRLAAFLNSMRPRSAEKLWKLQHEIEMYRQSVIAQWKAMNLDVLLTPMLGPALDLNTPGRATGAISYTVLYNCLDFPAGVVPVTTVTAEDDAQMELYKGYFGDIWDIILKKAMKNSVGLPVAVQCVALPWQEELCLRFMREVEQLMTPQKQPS

[3] = Metabolic stability in porcine liver S9 fraction; assay type: in vitro ADME; conditions: 30 min; for stability porcine liver S9 fractions (percent of parent remaining): 37 °C, no NADPH added; for stability in the absence of BNNP (percent of parent remaining) / stability in the presence of BNNP (percent of parent remaining): porcine liver homogenate; for stability in the presence of BNNP (percent of parent remaining): carboxylesterase 1 inhibitor BNPP 1 mM
[4] = Chemical stability in aqueous solution; assay type: physicochemical; conditions: PBS buffer pH 7.4 with 0.2% Triton X-100; 60 min, 37 °C
human recombinant MAGL = biological target: T3, human recombinant MAGL (Homo sapiens, UniProt Q99685); assay: Inhibition of monoacylglycerol lipase; assay type: biochemical
T3 sequence (Q99685 1-303): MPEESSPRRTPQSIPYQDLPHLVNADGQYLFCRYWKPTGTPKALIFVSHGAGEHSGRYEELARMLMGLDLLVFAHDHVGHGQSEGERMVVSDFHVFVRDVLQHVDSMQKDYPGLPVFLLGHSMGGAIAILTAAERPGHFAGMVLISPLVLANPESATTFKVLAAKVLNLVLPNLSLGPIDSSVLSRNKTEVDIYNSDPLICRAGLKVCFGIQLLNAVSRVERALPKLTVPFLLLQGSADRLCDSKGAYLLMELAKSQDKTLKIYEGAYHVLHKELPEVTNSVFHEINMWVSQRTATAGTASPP

[5] = Metabolic stability in porcine blood plasma; assay type: in vitro ADME; conditions: for stability porcine blood plasma (percent of parent remaining): Table 3, 30 min, 37 °C, n = 3 unless otherwise stated; for metabolic stability porcine plasma (percent of parent remaining): Table 1, 30 min incubation, n = 3
BuChE = BuChE (Equus caballus, UniProt P81908); assay: Inhibition of butyrylcholinesterase; assay type: biochemical, horse; conditions: read-out: BuChE inhibition at 10 μM
[6] = Metabolic stability in rat liver S9 fraction; assay type: in vitro ADME; conditions: 30 min incubation in the presence of NADPH

T1 sequence (P08835 25-607): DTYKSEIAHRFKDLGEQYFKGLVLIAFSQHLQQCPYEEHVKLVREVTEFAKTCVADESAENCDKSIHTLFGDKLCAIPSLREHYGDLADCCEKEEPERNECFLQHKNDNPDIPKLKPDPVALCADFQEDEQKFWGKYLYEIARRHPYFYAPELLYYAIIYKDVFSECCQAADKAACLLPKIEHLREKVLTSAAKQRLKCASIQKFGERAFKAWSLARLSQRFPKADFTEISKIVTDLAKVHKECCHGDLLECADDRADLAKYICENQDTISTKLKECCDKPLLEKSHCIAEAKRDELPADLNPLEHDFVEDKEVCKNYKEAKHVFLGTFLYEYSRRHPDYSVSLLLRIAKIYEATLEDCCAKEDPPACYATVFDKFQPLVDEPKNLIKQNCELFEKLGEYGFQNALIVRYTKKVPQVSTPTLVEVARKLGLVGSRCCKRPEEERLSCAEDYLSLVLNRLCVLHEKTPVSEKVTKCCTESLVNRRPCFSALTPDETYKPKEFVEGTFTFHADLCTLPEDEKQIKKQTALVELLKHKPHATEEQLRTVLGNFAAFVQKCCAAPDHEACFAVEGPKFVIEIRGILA
BuChE, sequence (P81908 whole entry): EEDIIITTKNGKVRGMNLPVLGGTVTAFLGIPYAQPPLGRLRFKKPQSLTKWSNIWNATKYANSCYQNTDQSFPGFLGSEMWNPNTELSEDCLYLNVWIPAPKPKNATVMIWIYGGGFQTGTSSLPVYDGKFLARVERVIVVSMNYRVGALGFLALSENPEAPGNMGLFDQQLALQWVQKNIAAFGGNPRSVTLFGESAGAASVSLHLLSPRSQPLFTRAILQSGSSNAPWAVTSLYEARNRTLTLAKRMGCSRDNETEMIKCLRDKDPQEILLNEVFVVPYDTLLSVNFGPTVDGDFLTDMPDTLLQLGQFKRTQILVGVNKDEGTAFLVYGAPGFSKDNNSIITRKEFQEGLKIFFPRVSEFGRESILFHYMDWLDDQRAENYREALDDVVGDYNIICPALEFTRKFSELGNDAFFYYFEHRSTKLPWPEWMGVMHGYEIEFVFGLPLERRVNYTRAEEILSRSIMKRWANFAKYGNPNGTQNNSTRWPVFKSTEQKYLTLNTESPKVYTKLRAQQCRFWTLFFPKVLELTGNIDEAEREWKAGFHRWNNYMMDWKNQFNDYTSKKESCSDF

| Structure (SMILES) | number of carbamate molecules bound to albumin in the most intense MS signal (porcine albumin [1]) | stability porcine albumin solution (percent of parent remaining) (porcine albumin [2]) | IC50 (FAAH) | stability porcine liver S9 fractions (percent of parent remaining) [3] | stability in the absence of BNNP (percent of parent remaining) [3] | stability in the presence of BNNP (percent of parent remaining) [3] | stability in PBS buffer (percent of parent remaining) [4] | IC50 (human recombinant MAGL) | stability porcine blood plasma (percent of parent remaining) [5] | decrease in FAAH inhibitory activity compared with compound 14 (FAAH; ratio of FAAH IC50 values) | inhibition at 10 µM (BuChE) | metabolic stability rat liver S9 fraction (percent of parent remaining) [6] | metabolic stability porcine plasma (percent of parent remaining) [5] |
| --- | --- | --- | --- | --- | --- | --- | --- | --- | --- | --- | --- | --- | --- |
| Cc1ccncc1OC(=O)NCCCCCn1ccc2ccc(F)cc21 [Compound 46, 4-Methylpyridin-3-yl N-[5-(6-fluoroindol-1-yl)pentyl]carbamate] | dual | 68% and 68 ± 6% | 3 nM | 56 ± 8% | 56 ± 8% | 76 ± 5% | 74 ± 4% | 150 nM | 8 ± 2% | – | – | – | – |
| O=C(O)Cc1ccccc1OC(=O)NCCCCCn1ccc2ccc(F)cc21 [Compound 43] | – | 89 ± 3% | 4200 nM | 82 ± 5% | – | – | >95% | – | 89 ± 1% | more than 100 fold | 34% | – | – |
| O=C(OC(C(F)(F)F)C(F)(F)F)N1CCN(Cc2ccc(C(F)(F)F)cc2N2CCCC2)CC1 [ABX-1431 (2), reference compound] | – | 87 ± 6% | – | 81 ± 3% | – | – | 90 ± 5% | – | 95 ± 2% | – | – | 92 ± 2% | 95 ± 2% |
| NC(=O)c1cccc(-c2cccc(OC(=O)NC3CCCCC3)c2)c1 [URB597 (1), reference compound] | – | 95 ± 7% | – | 80 ± 4% | – | – | >95% | – | – | – | 35% | – | – |
| O=C(NCCCCCn1ccc2ccc(F)cc21)Oc1ccccc1 [Compound 14, Phenyl N-[5-(6-Fluoroindol-1-yl)pentyl]carbamate] | – | 93 ± 6^n = 6% | 29 nM | – | 76 ± 2% | 87 ± 9% | >95% | – | – | – | – | 66 ± 8% | 80 ± 6% |
| Cc1cncc(OC(=O)NCCCCCn2ccc3ccc(F)cc32)c1 [Compound 47] | three | 37% and 37 ± 4% | 2 nM | 57 ± 5% | – | – | 72 ± 4% | 150 nM | <5% | – | – | – | – |
| O=C(O)Cc1ccc(OC(=O)NCCCCCn2ccc3ccc(F)cc32)cc1 [Compound 39, 2-[4-({[5-(6-Fluoroindol-1-yl)pentyl]carbamoyl}oxy)phenyl]acetic Acid] | – | >95% | 14 nM | 85 ± 3% | – | – | >95% | – | 88 ± 4% | – | 38% | – | – |
